# Data from article PMC9481026 (PLoS ONE, 2022).
# Read-outs that look alike come from different tables or passages of the source.
# What was measured:
# RVFV strain MP-12 [1] = assay: microbe, parasite or virus in culture; assay type: cell-based, Rift Valley fever virus
# RVFV MP-12 = assay: microbe, parasite or virus in culture; assay type: cell-based, Rift Valley fever virus; settings: read-out: Estimated EC50
# RVFV strain MP-12 [2] = assay: microbe, parasite or virus in culture; assay type: cell-based, Rift Valley fever virus; settings: read-out: A549 EC50
# LACV = assay: microbe, parasite or virus in culture; assay type: cell-based, La Crosse virus; settings: read-out: LACV EC50
# ZIKV = assay: microbe, parasite or virus in culture; assay type: cell-based, Zika virus; settings: read-out: ZIKV EC50
# Human RNase H1 = molecular target: T1, Human RNase H1 (Homo sapiens, UniProt O60930); assay: biochemical; settings: read-out: Human RNase H1 (IC50)
# T1 construct: made in house; host or cells: E. coli
# T1 sequence (O60930 1-286): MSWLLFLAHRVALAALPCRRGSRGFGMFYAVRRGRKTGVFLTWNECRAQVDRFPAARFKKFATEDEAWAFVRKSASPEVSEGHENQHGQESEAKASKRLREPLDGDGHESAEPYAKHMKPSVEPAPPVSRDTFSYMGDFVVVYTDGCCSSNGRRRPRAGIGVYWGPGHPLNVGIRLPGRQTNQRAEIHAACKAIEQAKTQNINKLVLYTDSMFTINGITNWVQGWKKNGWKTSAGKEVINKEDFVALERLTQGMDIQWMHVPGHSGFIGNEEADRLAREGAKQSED
# C. neoformans = assay: microbe, parasite or virus in culture; assay type: cell-based
# Staphylo-coccus spp. = assay: organism not typed; assay type: cell-based
Compound,EC50 (RVFV strain MP-12 [1]; read-out: EC50),EC50 (RVFV strain MP-12 [1]; read-out: Vero EC50),EC50 (RVFV MP-12),EC50 (RVFV strain MP-12 [2]),EC50 (LACV),EC50 (ZIKV),IC50 (Human RNase H1),"C. neoformans (MIC80, μM) (C. neoformans)",CC50 (Vero cells),CC50 (A549 cells),CC50 (HepDES19),"Staphylo-coccus spp. (MIC80, μM) (Staphylo-coccus spp.)",EC50 (RVFV strain MP-12 [1]; read-out: RVFV (EC50))
CC(=O)c1c(C)cc(O)c(=O)c(O)c1Br [Compound 320],34 µM,34 µM,2 µM,90.3 µM,> 120 µM,> 120 µM,37 µM,49 µM,> 120 µM,154 µM,49.5 µM,,
O=C1C=CC(=O)c2ccccc21 [Compound 327],39.7 µM,39.7 µM,2 µM,19.6 µM,12.7 µM,> 120 µM,47 µM,9.1 µM,,27.5 µM,18.5 µM,,
CC(=O)c1c(C)cc(O)c(=O)c(O)c1-c1ccccc1 [Compound 330],10.4 µM,10.4 µM,2 µM,42.6 µM,> 120 µM,32.7 µM,476 µM,4.0 µM,> 120 µM,> 240 µM,56.2 µM,44 µM,
CC(=O)c1c(C)cc(O)c(=O)c(O)c1-c1cccc2ccccc12 [Compound 331],15.8 µM,15.8 µM,2 µM,17.7 µM,,,448 µM,11 µM,80.4 µM,> 240 µM,36.6 µM,67 µM,
COC(=O)c1c(C)cc(O)c(=O)c(O)c1Br [Compound 335],40.8 µM,40.8 µM,3 µM,> 120 µM,> 120 µM,> 120 µM,111 µM,50 µM,> 120 µM,96.2 µM,,,40.8 µM
Cc1cc(O)c(=O)c(O)cc1C(=O)N1CCCCC1 [Compound 390],11.9 µM,11.9 µM,0.1 µM,9.4 µM,> 120 µM,> 120 µM,106 µM,11 µM,> 120 µM,224 µM,29.8 µM,,
CC(=Nc1ccc(C(F)(F)F)cc1)c1c(C)cc(=O)n(O)c1O [Compound 517],,> 120 µM,13 µM,95.8 µM,> 120 µM,> 120 µM,135 µM,24 µM,> 120 µM,71.8 µM,91 µM,,
CCc1cccc(N=C(C)c2c(C)cc(=O)n(O)c2O)c1 [Compound 518],19.5 µM,20 µM,7 µM,17.2 µM,> 120 µM,> 120 µM,436 µM,24 µM,> 120 µM,16.5 µM,91.4 µM,67 µM,
CC(=Nc1ccccc1Cl)c1c(C)cc(=O)n(O)c1O [Compound 668],19.2 µM,19.2 µM,11 µM,35.7 µM,> 120 µM,> 120 µM,165 µM,,> 120 µM,82 µM,76.8 µM,,
CC[C@H](C)[C@H](NC(=O)OCC1c2ccccc2-c2ccccc21)C(=O)Sc1cccccc1=O [Compound 686],,6.3 µM,2.16 µM,7.9 µM,45.4 µM,> 120 µM,> 500 µM,0.85 µM,> 120 µM,67.6 µM,42.6 µM,30 µM,
CCCCCCSc1cccc(O)c(=O)c1O [Compound 840],31.6 µM,31.6 µM,14 µM,15.4 µM,> 120 µM,> 120 µM,73 µM,1.0 µM,> 120 µM,142 µM,21.5 µM,,
